In patent US8999243B2, “Blood coagulation system analyzing method and blood coagulation system analyzing device” (Sony Corporation, priority 2011, dated 2015):

Tests used:
[1] = test system: platelets in sample blood (whole blood); experiment: Dielectric measurement (complex permittivity) of blood coagulation with platelet activating agent; assay type: cell-based, human; conditions: frequency 10.7 MHz
Procedure: By using an evacuated blood collection tube treated with use of sodium citrate as an anticoagulant, blood was collected from the healthy person and the patient with thrombocytopenia (the number of platelets in 1 μL of blood was 1.2×10^4) as a whole blood sample. Next, 0.25 M of a calcium chloride aqueous solution was added (85 μL per 1 mL of blood) to the sample blood whose temperature was kept at 37° C. and a blood coagulation reaction was started. The platelet activating agent (ADP) was so added as to be mixed in the calcium chloride aqueous solution (10 μM per 1 mL of blood). Immediately after the start of the blood coagulation reaction, measurement was performed for 60 minutes by using an impedance analyzer (Agilent Corporation, 4294A) under the following condition: temperature was 37° C.; frequency range was 40 Hz to 110 MHz; and measurement time interval was one minute.

[2] = test system: platelets in sample blood / platelet poor blood; experiment: Rheometer (free damped oscillation type) measurement of viscoelasticity change / coagulation time; assay type: cell-based, human
Procedure: By using an evacuated blood collection tube treated with use of sodium citrate as an anticoagulant, blood was collected from the healthy person and the patient with thrombocytopenia (the number of platelets in 1 μL of blood was 1.2×10^4) as a whole blood sample. Furthermore, blood cells and platelets were separated from the whole blood sample to prepare platelet poor plasma. The sample blood was centrifuged under a condition of 500 G and five minutes to be separated into blood cells and platelet rich plasma (PRP). The plasma was centrifuged under a condition of 2000 G and 30 minutes and sedimentation of the platelets was caused to obtain the platelet poor plasma (PPP). Measurement was performed by using a rheometer of the free damped oscillation type. The coagulation time was obtained by observing a change in the viscoelasticity and compared with the result by the dielectric measurement.

Nc1ncnc2c1ncn2[C@@H]1O[C@H](COP(=O)(O)OP(=O)(O)O)[C@@H](O)[C@H]1O [ADP, adenosine diphosphate]
coagulation time with ADP addition ([1]; sample blood of patient with thrombocytopenia (1.2×10^4 platelets in 1 μL), ADP added): 38 min | change of coagulation time due to ADP addition (dielectric measurement) ([1]; sample blood of patient with thrombocytopenia): shortening of the coagulation time was found | average of the coagulation time when the ADP was added ([1]; sample blood of plural healthy persons, ADP 10 μM per 1 mL of blood in calcium chloride solution, 37° C., without ADP 31 minutes): 17 min | change of coagulation time due to ADP addition (dielectric measurement) ([1]; sample blood of plural healthy persons): shortening of the coagulation time | change of coagulation time due to ADP addition (rheometer) ([2]; platelet poor blood (cleaned red blood cells added to platelet poor plasma)): not observed | change of coagulation time due to ADP addition (rheometer) ([2]; sample blood of the healthy person): shortening of the coagulation time
